Reference: patent publication US20240166622A1, “FLUORINATED QUINOLINE, QUINOXALINE AND BENZO[B][1,4]OXAZINE DERIVATIVES AS DIHYDROOROTATE DEHYDROGENASE (DHODH) INHIBITORS FOR THE TREATMENT OF CANCER, AUTOIMMUNE AND INFLAMMATORY DISEASES” (Janssen Biotech, Inc., priority 2019, published 2024)

Key:
human DHODH = human DHODH (Homo sapiens (Human), UniProt Q02127); assay: DHODH Enzymatic Assay; format: biochemical; conditions: purified human DHODH, DCIP absorbance, end-point mode
Description: To detect DHODH enzyme activities, dichloroindophenol (DCIP) is added as the final electron acceptor in the assay. DCIP can accept electrons from the reduced coenzyme Q generated in the assay, or from dihydroorotate (DHO) via FMN by binding presumably to the ubiquinone pocket. […] The assay buffer contained […], pH 7.5, 150 mM NaCl, 0.5 mM EDTA, and 0.1% Triton X-100 in MilliQ water. Substrate consisting of 20 mM DHO, 5 mM CoQ6, and 1 mM DCIP in assay buffer, initiates the reaction. […] Absorbance measurements were obtained using the BMG Phera Star plate-reading spectrophotomer. Purified human DHODH was purchased from Proteros (cat. No. PR-0044). Chemicals were purchased from Sigma-Aldrich, Teknova, and Avanti Polar Lipids. Liquid handling was performed using Labcyte Echo and Formulatrix Tempest.

MOLM-13 cells = assay: MOLM-13 Cellular Assay; format: cell-based; conditions: Homo sapiens, 72 hours, cell viability by CellTiter-Glo
Description: MOLM-13 cells were obtained from DSMZ and were maintained in RPMI 1640+Glutamax+25 mM HEPES (Invitrogen, catalog number 72400) supplemented with 10% heat inactivated fetal bovine serum (FBS; Invitrogen, catalog number 16140). The day prior to assay set-up, cells were pelleted, resuspended in fresh media, counted, and cells were plated at 0.4×10^6 cell/mL in a T150 flask. On the day of the assay, cells were pelleted, resuspend in fresh media, counted, and seeded at 5,000 cells/well in white opaque 96-well tissue culture treated microplates (Perkin Elmer, catalog number 6005680). Cells were exposed to different concentrations of test compounds at 37° C., 5% CO2 for 72 hours immediately after seeding. Cell viability was acquired on a Perkin Elmer Envision 2104 multilabel reader using the CellTiter-Glo assay (Promega) according to the manufacturer's instructions.

Chain of human DHODH (Q02127 whole entry): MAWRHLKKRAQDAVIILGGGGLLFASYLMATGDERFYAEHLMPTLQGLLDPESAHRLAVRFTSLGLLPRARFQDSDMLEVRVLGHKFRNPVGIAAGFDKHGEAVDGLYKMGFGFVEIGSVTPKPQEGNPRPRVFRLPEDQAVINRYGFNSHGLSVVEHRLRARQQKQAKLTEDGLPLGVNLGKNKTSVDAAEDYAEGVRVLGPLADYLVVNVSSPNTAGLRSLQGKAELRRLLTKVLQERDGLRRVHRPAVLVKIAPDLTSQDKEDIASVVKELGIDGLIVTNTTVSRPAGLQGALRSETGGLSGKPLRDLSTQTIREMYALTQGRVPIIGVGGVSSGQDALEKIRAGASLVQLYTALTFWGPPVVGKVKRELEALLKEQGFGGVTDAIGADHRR

Compound	IC50 (human DHODH) [nM]	IC50 (MOLM-13 cells) [nM]
CCn1c(CO)nn(-c2cc3c(cc2F)NC(c2ccccc2C)CC3C(C)C)c1=O (racemic) [Example 13, Racemic 4-Ethyl-2-(7-fluoro-4-isopropyl-2-(o-tolyl)-1,2,3,4-tetrahydroquinolin-6-yl)-5-(hydroxymethyl)-2,4-dihydro-3H-1,2,4-triazol-3-one]	51.7	20
CCn1c(CO)nn(-c2cc3c(cc2F)C(O)C(c2ccccc2C)CN3C(C)C)c1=O (racemic) [Example 14, Racemic 4-Ethyl-2-(6-fluoro-4-hydroxy-1-isopropyl-3-(o-tolyl)-1,2,3,4-tetrahydroquinolin-7-yl)-5-(hydroxymethyl)-2,4-dihydro-3H-1,2,4-triazol-3-one]	5.62	4
CCn1c(CO)nn(-c2cc3c(cc2F)C(=O)C(C)(c2ccccc2C)CN3C(C)C)c1=O (racemic) [Example 19, Racemic 7-(4-Ethyl-3-(hydroxymethyl)-5-oxo-4,5-dihydro-1H-1,2,4-triazol-1-yl)-6-fluoro-1-isopropyl-3-methyl-3-(o-tolyl)-23-dihydroquinolin-4(1H)-one]	7.06	4
CCn1c(CO)nn(-c2cc3c(cc2F)C(C)(O)C(c2ccccc2C)CN3C(C)C)c1=O (racemic) [Example 20, Racemic 4-Ethyl-2-(6-fluoro-4-hydroxy-1-isopropyl-4-methyl-3-(o-tolyl)-1,2,3,4-tetrahydroquinolin-7-yl)-5-(hydroxymethyl)-2,4-dihydro-3H-1,2,4-triazol-3-one]	0.607	0.5
CCn1c(CO)nn(-c2cc3c(cc2F)O[C@@H](c2c(F)cccc2Cl)CN3C(C)C)c1=O (single isomer, unassigned) [Example 7, (S*)-1-(2-(2-Chloro-6-fluorophenyl)-7-fluoro-4-isopropyl-3,4-dihydro-2H-benzo[b][1,4]oxazin-6-yl)-4-ethyl-3-(hydroxymethyl)-1H-1,2,4-triazol-5(4H)-one]	0.256	0.1
CCn1c(CO)nn(-c2cc3c(cc2F)O[C@H](c2c(F)cccc2Cl)CN3C(C)C)c1=O (single isomer, unassigned) [Example 8, (R*)-1-(2-(2-Chloro-6-fluorophenyl)-7-fluoro-4-isopropyl-3,4-dihydro-2H-benzo[b][1,4]oxazin-6-yl)-4-ethyl-3-(hydroxymethyl)-1H-1,2,4-triazol-5(4H)-one]	5.5	3
CCn1c(CO)nn(-c2cc3c(cc2F)[C@@H](O)[C@@H](c2ccccc2C)CN3C(C)C)c1=O (stereo in doubt) [Example 15, 4-Ethyl-2-((3S*,4S*)-6-fluoro-4-hydroxy-1-isopropyl-3-(o-tolyl)-1,2,3,4-tetrahydroquinolin-7-yl)-5-(hydroxymethyl)-2,4-dihydro-3H-1,2,4-triazol-3-one]	7.9	4
CCn1c(CO)nn(-c2cc3c(cc2F)[C@H](O)[C@H](c2ccccc2C)CN3C(C)C)c1=O (stereo in doubt) [Example 16, 4-Ethyl-2-((3R*,4R*)-6-fluoro-4-hydroxy-1-isopropyl-3-(o-tolyl)-1,2,3,4-tetrahydroquinolin-7-yl)-5-(hydroxymethyl)-2,4-dihydro-3H-1,2,4-triazol-3-one]	2.24	2
CCn1c(CO)nn(-c2cc3c(cc2F)[C@H](O)[C@@H](c2ccccc2C)CN3C(C)C)c1=O (stereo in doubt) [Example 17, 4-Ethyl-2-((3S*,4R*)-6-fluoro-4-hydroxy-1-isopropyl-3-(o-tolyl)-1,2,3,4-tetrahydroquinolin-7-yl)-5-(hydroxymethyl)-2,4-dihydro-3H-1,2,4-triazol-3-one]	173	~100
CCn1c(CO)nn(-c2cc3c(cc2F)[C@@H](O)[C@H](c2ccccc2C)CN3C(C)C)c1=O (stereo in doubt) [Example 18, 4-Ethyl-2-((3R*,4S*)-6-fluoro-4-hydroxy-1-isopropyl-3-(o-tolyl)-1,2,3,4-tetrahydroquinolin-7-yl)-5-(hydroxymethyl)-2,4-dihydro-3H-1,2,4-triazol-3-one]		3
CCn1c(CO)nn(-c2cc3c(cc2F)N[C@@H](c2ccccc2C)C[C@H]3C(C)C)c1=O (stereo in doubt) [Example 22, 4-Ethyl-2-((2R*,4S*)-7-fluoro-4-isopropyl-2-(0-tolyl)-1,2,3,4-tetrahydroquinolin-6-yl)-5-(hydroxymethyl)-2,4-dihydro-3H-1,2,4-triazol-3-one]	113	30
CCn1c(CO)nn(-c2cc3c(cc2F)N[C@H](c2ccccc2C)C[C@@H]3C(C)C)c1=O (stereo in doubt) [Example 23, 4-Ethyl-2-((2R*,4S*)-7-fluoro-4-isopropyl-2-(o-tolyl)-1,2,3,4-tetrahydroquinolin-6-yl)-5-(hydroxymethyl)-2,4-dihydro-3H-1,2,4-triazol-3-one]	49.2	10
CCn1c(CO)nn(-c2cc3c(cc2F)c(=O)c(-c2cccc(F)c2)cn3C(C)C)c1=O [Example 1, 7-(4-Ethyl-3-(hydroxymethyl)-5-oxo-4,5-dihydro-1H-1,2,4-triazol-1-yl)-6-fluoro-3-(3-fluorophenyl)-1-isopropylquinolin-4(1H)-one]	528	400
CCn1c(CO)nn(-c2ccc3c(c2)N([C@@H](C)C(F)(F)F)C(=O)C(c2ccccc2SC)N3)c1=O (stereo partly drawn) [Example 2, 7-(4-Ethyl-3-(hydroxymethyl)-5-oxo-4,5-dihydro-1H-1,2,4-triazol-1-yl)-3-(2-(methylthio)phenyl)-1-((S)-1,1,1-trifluoropropan-2-yl)-3,4-dihydroquinoxalin-2(1H)-one]	588	100
CCn1c(CO)nn(-c2ccc3c(c2)N([C@@H](C)C(F)(F)F)C(=O)C(c2c(F)cccc2Cl)N3)c1=O (stereo partly drawn) [Example 3, 3-(2-Chloro-6-fluorophenyl)-7-(4-ethyl-3-(hydroxymethyl)-5-oxo-4,5-dihydro-1H-1,2,4-triazol-1-yl)-1-((S)-1,1,1-trifluoropropan-2-yl)-3,4-dihydroquinoxalin-2(1H)-one]	293	100
CCn1c(CO)nn(-c2ccc3c(c2)N([C@@H](C)C(F)(F)F)CC(c2c(F)cccc2Cl)N3)c1=O (stereo partly drawn) [Example 4, 2-(2-(2-Chloro-6-fluorophenyl)-4-((S)-1,1,1-trifluoropropan-2-yl)-1,2,3,4-tetrahydroquinoxalin-6-yl)-4-ethyl-5-(hydroxymethyl)-2,4-dihydro-3H-1,2,4-triazol-3-one]	2.42	3
CCn1c(CO)nn(-c2cc3c(cc2F)OC(c2c(F)cccc2Cl)C(=O)N3C(C)C)c1=O (stereo not drawn) [Example 5, 2-(2-Chloro-6-fluorophenyl)-6-(4-ethyl-3-(hydroxymethyl)-5-oxo-4,5-dihydro-1H-1,2,4-triazol-1-yl)-7-fluoro-4-isopropyl-2H-benzo[b][1,4]oxazin-3(4H)-one]	42.3	50
CCn1c(CO)nn(-c2cc3c(cc2F)OC(c2c(F)cccc2Cl)CN3C(C)C)c1=O (stereo not drawn) [Example 6, 1-(2-(2-Chloro-6-fluorophenyl)-7-fluoro-4-isopropyl-3,4-dihydro-2H-benzo[b][1,4]oxazin-6-yl)-4-ethyl-3-(hydroxymethyl)-1H-1,2,4-triazol-5(4H)-one]	0.504	~0.3
CCn1c(CO)nn(-c2cc3c(cc2F)c(=O)c(-c2cc(C)ccc2F)cn3C(C)C)c1=O [Example 9, 7-(4-Ethyl-3-(hydroxymethyl)-5-oxo-4,5-dihydro-1H-1,2,4-triazol-1-yl)-6-fluoro-3-(2-fluoro-5-methylphenyl)-1-isopropylquinolin-4(1H)-one]	58.2	> 100
CCn1c(CO)nn(-c2cc3c(cc2F)c(=O)c(-c2ccccc2C)cn3C(C)C)c1=O [Example 10, 7-(4-Ethyl-3-(hydroxymethyl)-5-oxo-4,5-dihydro-TH-1,2,4-triazol-1-yl)-6-fluoro-1-isopropyl-3-(o-tolyl)quinolin-4(1H)-one]		9
CCn1c(CO)nn(-c2cc3c(cc2F)C(=O)C(c2ccccc2C)CN3C(C)C)c1=O (stereo not drawn) [Example 11, 7-(4-Ethyl-3-(hydroxymethyl)-5-oxo-4,5-dihydro-1H-1,2,4-triazol-1-yl)-6-fluoro-1-isopropyl-3-(o-tolyl)-2,3-dihydroquinolin-4(1H)-one]		0.5
CCn1c(CO)nn(-c2cc3c(cc2F)c(=O)c(-c2c(F)cccc2Cl)cn3C(C)C)c1=O [Example 12, 3-(2-Chloro-6-fluorophenyl)-7-(4-ethyl-3-(hydroxymethyl)-5-oxo-4,5-dihydro-1H-1,2,4-triazol-1-yl)-6-fluoro-1-isopropylquinolin-4(1H)-one]		30
CCn1c(CO)nn(-c2cc3c(cc2F)C(C)=C(c2ccccc2C)CN3C(C)C)c1=O [Example 21, 4-Ethyl-2-(6-fluoro-1-isopropyl-4-methyl-3-(o-tolyl)-1,2-dihydroquinolin-7-yl)-5-(hydroxymethyl)-2,4-dihydro-3H-1,2,4-triazol-3-one]	3.71	2
